The subject of one data set is healthy cats. The experiment in a line: Effects on vasomotor tone, myocardial contractility and lusitropy in healthy cats. It is filed as in vivo, cat. The note with it: therapeutically relevant doses. The source says:
“Funny If current inhibitors”, also referred to as “If channel blockers” or “If current inhibitors” herein, relate to If inhibitors including pharmaceutically acceptable salts thereof, which selectively block hyperpolarization-activated cyclic nucleotide-gated channels (HCN) in cardiac conductive tissue, channels responsible for the transmembrane current known as If. It is through blockade of this current that If channel blockers are assumed to produce their specific bradycardic effect. HCN channels are widely distributed in the nervous system and in the eye they mediate the current known as Ih. The effect of zatebradine and cilobradine on the Ih channel has also been investigated (See Neuroscience, Vol. 59(2), pp. 363-373, 1994 for zatebradine, and British Journal of Pharmacology, Vol. 125, pp. 741-750, 1998 for cilobradine). […] Cilobradine in particular reduces the heart rate in the sinoatrial node of the heart by selective blockade of If channels (“funny channels”) through a direct interaction with predominantly HCN4 channels. This blockage is potent and has a dosage and voltage dependency. Because of the high selectivity to the If current, effects on vasomotor tone or myocardial contractility and lusitropy are not observed at therapeutically relevant doses in healthy cats. […]

A short description of data set [1]: Pharmacokinetics in healthy human male subjects, once daily po. for 7 days. The format is in vivo. The procedure:
(§1) Cilobradine chloride salt was administered at a dose of 5, 10 and 20 mg per subject in the form of capsules. These doses are equal to 0.07, 0.14, and 0.28 mg/kg cilobradine chloride salt assuming a body weight of 70 kg. […] Cilobradine hydrochloride was administered at a dose of 0.1 mg/kg and 0.3 mg/kg as a suspension. […] There are some differences between cats and humans in terms of pharmacokinetics of cilobradine, which might be related to differences in absorption, metabolisation, distribution, or excretion.

The subject of a further data set is Ih channel. The note with it: literature (Neuroscience 1994; Br J Pharmacol 1998); cited from earlier work.
Data set [2] has as its system cats suffering from HF due to HCM. The data set can be described thus: Blinded, controlled, randomised efficacy field study in HCM cats. It is filed as in vivo. Further details: key to Right heart enlargement (score): Score 1: normal size; Score 2: mild enlargement; Score 3: moderate enlargement; Score 4: severe enlargement. The following applies: HCM cat; for Right heart enlargement (score): X-ray. The procedure:
A blinded, controlled, randomised, efficacy field study was conducted with HCM cats receiving cilobradine (initial dose: 0.2 mg/kg po. twice daily) or a placebo (dose: 0.0 mg/kg po. twice daily) for 85 days. The dose of cilobradine could be adjusted during the study (dose range 0.1-0.5 mg/kg per-oral twice daily). The administration of furosemide was allowed in both groups. All cats were hospitalised in the first week of the study (study days 1-6), and they were allowed to go home afterwards (study days 7-85).
Cats with a diagnosis of HCM were included in the study. The diagnosis of HCM was established by using echocardiography showing global, regional or segmental thickness of the interventricular septum and/or left ventricular free-wall in diastole greater than 6 mm. Further inclusion criteria were: systolic blood pressure less than 170 mmHg; serum thyroxine (T4) was normal; and body weight was higher than 2 kg.
The owner provided a signed informed consent for the animal to enter the study. Cats that suffered from heart disease were scored using a 4 point score adapted from the ISACHC as follows: • Score 1: presence of heart disease associated with no clinical signs but detectable (e,g, auscultation, echocardiography and radiography); • Score 2: clinical signs of heart failure evident and adversely affect the quality of life. Typical signs include dyspnea/tachypnea, pulmonary congestion, weakness/lethargy, anorexia, exercise intolerance; • Score 3: clinical signs of advance heart failure immediately obvious. These clinical signs could have included respiratory distress, marked ascites/pulmonary congestion, profound exercise intolerance or hypoperfusion at rest; and • Score 4: severe cases: subject was moribund, suffered from cardiogenic shock or acute posterior paresis/paralysis. Hospitalization was mandatory.
Cats having one or more of the following criteria were excluded: • a) The cat had received one or more of the following pretreatments: calcium channel blockers, e.g. diltiazem, angiotensin converting enzyme inhibitors, f3-blockers, acetylsalicylic acid, or digitales glycosides. (Cats pre-treated with furosemide alone were allowed to be included in either of the groups if they matched all inclusion criteria above.) • b) Elevated serum T4 level; • c) Elevated serum blood urea nitrogen (BUN) levels higher than 90 mg/dL or elevated serum creatinine levels higher than 3 mg/dL; • d) Systolic arterial blood pressure greater than or equal to 170 mmHg; • e) Dilated cardiomyopathy (DCM); • f) Suffered from heart disease with a score of 4 (adapted ISACHC score) or with no documented episode of heart failure (score 2 or 3) within 30 days before enrollment; • g) Fixed aortic stenosis; • h) Were pregnant or lactating queens; • i) Were nursing kittens; • j) Body weight less than 2 kg; or • k) Presence of sinus bradycardia (heart rate less than 120 bpm at consultation).
The cat's quality of life was assessed on a daily basis using the following grading system: 1 (better), 2 (equal), 3 (worse).
Furthermore, right heart enlargement was assessed by X-ray using the following scoring system: Score 1: normal size; Score 2: mild enlargement; Score 3: moderate enlargement; and Score 4: severe enlargement. Mild enlargement of the right side of the heart was observed using X-ray in the cat receiving a placebo at the end of the study. In contrast, the right side of the heart was normal in the cat receiving cilobradine throughout the study (see Table 10).

For data set [3], the system named is heart rate. The experiment in a line: Pharmacodynamic profile (telemetric heart rate) in the conscious cat. It is filed as in vivo. The procedure: as §1
The pharmacodynamic profile of cilobradine hydrochloride was characterised at two dose levels administered by the oral route, once and twice daily, in the conscious cat. The study involved 2 groups of 3 male European Short Hair cats weighing between 4.15 kg and 4.75 kg on the day of the first treatment. Each cat was dosed with cilobradine hydrochloride once (sid) and twice (bid) daily successively at 0.1 or 0.3 mg/kg in a cross over-design. Each treatment was separated by an interval of 24 hours (sid) or 12 hours (bid). A washout period of 7 days was scheduled between the 2 dosing periods. Cats were previously instrumented with telemetric transmitters for heart rate measurements. Telemetric measurements were recorded for 15 seconds every 5 minutes at a sampling rate of 500 Hz on D-2, D-1, from D0 up to D9 and from D16 up to D25 except for D4 and D20 during blood sampling.

For data set [4], the system named is heart rate. The data set can be described thus: Heart rate after oral administration in humans. The note with it: over 9 h following administration, 5, 10, 20 mg per subject. It is filed as in vivo, human. How it is done:
as §1

A short description of data set [5]: Pharmacokinetics in healthy cats, once daily po. for 4 days. The format is in vivo. The following applies: cat. How it is done: as §1
The subject of data set [6] is left atrial systolic and global function. The note with it: feline CMP; cited from earlier work.
The nature of a further data set: Lipophilicity profile. The following applies: neutral pH versus acidic pH. It is filed as physicochemical. The source says: Usually, EC/HPMC films show a sustained release behaviour that is independent of pH. […] This profile, together with the coating applied, may have led to a slower release.
For data set [7], the system named is healthy cats and cats with hypertrophic cardiomyopathy. The note with it: cited from earlier work.

We go through five molecules from patent publication US20130040937A1, “INHIBITORS FOR TREATING AND PREVENTING HEART FAILURE IN FELINES” (BOEHRINGER INGELHEIM VETMEDICA GMBH, priority 2011, published 2013).

The structures appear in SMILES notation. Read-outs that look alike come from different tables or passages of the source.

In the case of `COc1ccc(CCN2CCC[C@H](CN3CCc4cc(OC)c(OC)cc4CC3=O)C2)cc1OC` [Cilobradine, (+)-3-[(N-(2-(3,4-dimethoxy-phenyl)ethyl)-piperidin-3-(S)-yl)-methyl]-(7,8-dimethoxy-1,3,4,5-tetrahydro-2H-3-benzazepin-2-on)], the “effects on vasomotor tone or myocardial contractility and lusitropy” value in the data set on healthy cats was “not observed”. The Half-life in [1] (in vivo, healthy human male subjects, once daily po. for 7 days, 5-20 mg per subject, read-out: half-life) is 10.1 to 13.9 h; in data set [5] (in vivo, healthy cats, once daily po. for 4 days, 0.1 and 0.3 mg/kg, read-out: half-life), 2.53 to 3.52 h. In the data set on Ih channel, the “block of Ih” value is on record as “can also be blocked”. Further, the “reduction of the interventricular septal thickness in systole compared to placebo” value in data set [2] is listed as “considerably greater”. Further, the “Interventricular septal thickness in systole” value in [2] (SD 0 (baseline)) was determined as 11.7 mm; in [2] (SD 84), 7.5 mm. Besides, the Heart rate in data set [2] (SD 0 (baseline), initial dose 0.2 mg/kg po. twice daily) was found to be 152 beats per minutes; in data set [2] (SD 7), 120 beats per minutes; in data set [2] (SD 28) it was 144 beats per minutes; in [2] (SD 56), 124 beats per minutes; in data set [2] (SD 84) it was 210 beats per minutes. Further, the “Right heart enlargement (score)” value in data set [2] (SD 0 (baseline)) and in data set [2] (SD 84) was 1 throughout. Moreover, in [2] (daily owner grading 1 (better), 2 (equal), 3 (worse), FIG. 1), the quality of life result is “almost continuous improvement”. Also, the “heart rate (in words)” value in data set [2] (study period, versus placebo cat) was “reduced throughout the study”. The “right side of the heart (X-ray)” value in data set [2] (throughout the study) was “normal”. Also, the heart rate reduction result with heart rate [3] (cats, over 9 h following administration, 0.1 and 0.3 mg/kg) is listed as “dose dependent heart rate reduction”; in the data set with heart rate [4], “dose dependent heart rate reduction”.
With `CC(C)NCC(O)COc1ccc(CC(N)=O)cc1` (stereo not shown) [atenolol], in data set [6], the “left atrial systolic and global function” value was “significantly decreased”.
`COc1ccc(CCN2CCC[C@H](CN3CCc4cc(OC)c(OC)cc4CC3=O)C2)cc1OC.Cl` [cilobradine hydrochloride]: the Half-life worked out at 13.9 h in [1] (human, 5 mg/subject (0.07 mg/kg), capsules, once daily po. 7 days); 13.0 h in data set [1] (human, 10 mg/subject (0.14 mg/kg), capsules, once daily po. 7 days); 10.1 h in data set [1] (human, 20 mg/subject (0.28 mg/kg), capsules, once daily po. 7 days); 3.52 h in [5] (0.1 mg/kg, suspension, once daily po. 4 days); 2.53 h in [5] (0.3 mg/kg, suspension, once daily po. 4 days). For the same molecule, the bradycardia result with heart rate [3] (conscious cat, oral 0.1 and 0.3 mg/kg per day, sid and bid) is “dose-dependent bradycardia”. Also, the lipophilicity profile result in “Lipophilicity profile” is “slightly more lipophilic at neutral pH values”.
Regarding `COc1cc2c(cc1OC)CC(=O)N(CCCN(C)C[C@H]1Cc3cc(OC)c(OC)cc31)CC2` [ivabradine, 3-[3-[[[(7S)-3,4-dimethoxybicyclo[4.2.0]octa-1,3,5-trien-7-yl]methyl]methylamino]propyl]-1,3,4,5-tetrahydro-7,8-dimethoxy-2H-3-benzazepin-2-one], in data set [7] (healthy cats), the heart rate reduction result is reported as “significant heart rate reduction” and the “negative chronotropic effect, dose relation” value was “dose-dependency”. The heart rate reduction result in data set [7] (subclinical HCM cats) is recorded as “significant heart rate reduction”.
In the case of `COc1ccc(CCN(C)CCCN2CCc3cc(OC)c(OC)cc3CC2=O)cc1OC` [zatebradine, reference compound], in the data set on Ih channel, the “block of Ih” value is “can also be blocked”.
